Biological target: Eukaryotic translation initiation factor 4E (Homo sapiens, UniProt P06730)
Test: Fluorescence Polarization Assay
Protocol: eIF4E protein was pre-incubated with EDA-m7GDP-ATTO-550 in FPB at 2xconcentrations for 5 minutes prior to the addition of compounds. Compounds (100x) were prepared using 3-fold serial dilutions in 100% DMSO, and subsequently diluted 1:50 in FPB to produce 2x stocks. 50 ul of 2x eIF4E/EDA-m7GDP-ATTO-550 were transferred to the wells of a 96-well half-area black flat bottom polystyrene plate. 50 ul of 2x test compound were added, and binding reactions were allowed to equilibrate for 30 minutes at room temperature while protected from light. The fluorescent polarization signal was detected using a Victor 2 multi-label counter (Perkin Elmer) and the concentration necessary to achieve inhibition of eIF4E/EDA-m7GDP-ATTO-550 binding by 50% (IC50) was calculated using data from an 8-point compound dilution series.

Chain of Eukaryotic translation initiation factor 4E (P06730 whole entry): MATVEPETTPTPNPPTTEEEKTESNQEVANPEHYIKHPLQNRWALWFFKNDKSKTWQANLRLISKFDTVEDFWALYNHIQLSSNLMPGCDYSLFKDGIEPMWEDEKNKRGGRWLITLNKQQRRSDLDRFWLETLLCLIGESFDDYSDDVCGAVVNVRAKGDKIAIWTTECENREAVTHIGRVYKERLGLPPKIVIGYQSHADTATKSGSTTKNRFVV

| SMILES | IC50 |
| --- | --- |
| Cc1nc2cnc(N(C)C3CCN(CC(F)F)CC3)c(C#N)c2c(=O)n1CCOc1ccc(Cl)cc1-c1ccnc2c(C(=O)O)csc12 [US11286268, Compound 1318] | 34.4 nM |
| Cc1nc2cnc(N3CC4(C3)CN(C3(C)CC(F)(F)C3)C4)c(C#N)c2c(=O)n1CCOc1ccc(Cl)cc1-c1ccnc2c(C(=O)O)csc12 [US11286268, Compound 1435] | 26.4 nM |
| Cc1nc2cnc(N3CC4(C3)CN(C3CCC3)C4)c(C#N)c2c(=O)n1CCOc1ccc(Cl)cc1-c1ccnc2c(C(=O)O)csc12 [US11286268, Compound 1437] | 37.3 nM |
| Cc1nc2cnc(N3CCN(C4CC4)C(C(F)F)C3)c(C#N)c2c(=O)n1CCOc1ccc(Cl)cc1-c1ccnc2c(C(=O)O)csc12 (stereo not drawn) [US11286268, Compound 1439] | 12.8 nM |
| Cc1nc2cnc(C(=O)C3CCN(CC(F)F)CC3)c(C#N)c2c(=O)n1CCOc1ccc(Cl)cc1-c1ccnc2c(C(=O)O)csc12 [US11286268, Compound 1440] | 69 nM |
| Cc1nc2cnc(N(C)CC3CCN(CC(F)F)CC3)c(C#N)c2c(=O)n1CC#Cc1ccc(Cl)cc1-c1ccnc2c(C(=O)O)csc12 [US11286268, Compound 1541] | 10.6 nM |
| Cc1nc2cnc(N(C)C3CCN(CC(C)(F)F)CC3)c(C#N)c2c(=O)n1CC#Cc1ccc(Cl)cc1-c1ccnc2c(C(=O)NS(=O)(=O)C(F)(F)F)csc12 [US11286268, Compound 1603] | 2.12 nM |
| CCN(c1ncc2nc(C)n(CC#Cc3ccc(Cl)cc3-c3ccnc4c(C(=O)NS(=O)(=O)C5COC5)csc34)c(=O)c2c1C#N)C1CCN(CC(F)(F)C(F)F)CC1 [US11286268, Compound 1608] | 6.59 nM |
| CCN(c1ncc2nc(C)n(CC#Cc3ccc(Cl)cc3-c3ccnc4c(C(=O)NS(=O)(=O)c5ccccn5)csc34)c(=O)c2c1C#N)C1CCN(CC(F)(F)C(F)F)CC1 [US11286268, Compound 1609] | 4.88 nM |
| Cc1nc2cnc(NC3CC[N+](C)(CC(F)F)CC3)c(C#N)c2c(=O)n1CC#Cc1ccc(Cl)cc1-c1ccnc2c(C(=O)O)csc12 (stereo not drawn) [US11286268, Compound 1663] | 14.1 nM |
| CCN(c1ncc2nc(C)n(CC#Cc3ccc(Cl)cc3-c3ccnc4c(C(=O)NS(=O)(=O)CF)csc34)c(=O)c2c1C#N)C1CCN(C2COC2)CC1 [US11286268, Compound 1743] | 6.87 nM |
| Cc1nc2cc(C(F)(F)F)cc(C#N)c2c(=O)n1CCOc1ccc(Cl)cc1-c1cc(C(C)C)nc2c(C(=O)O)csc12 [US11286268, Compound 1902] | 84.2 nM |
| N#Cc1ccc(OCCn2cnc3cnc(C#N)cc3c2=O)c(-c2cccc(C(=O)O)c2)c1 [US11286268, Compound 2026] | 656 nM |

— BindingDB's records for patent US11286268 (eFFECTOR Therapeutics, Inc., 2022)
